# From ChEMBL document CHEMBL4649985, “Generation of a Selective Small Molecule Inhibitor of the CBP/p300 Bromodomain for Leukemia Therapy” (Cancer Res, 2015)
# Values joined by “and” are separate entries in the source; they are usually repeats but may differ in a detail not shown here. Identical values can stand only once.
# Assays:
# [1] = biological target: T1, Bromodomain-containing protein 4 (Homo sapiens, UniProt O60885); experiment: Alphascreen assay. Binding to BRD4A (domain start/stop: N44-E168) by alphascreen assay
# CREB-binding protein [2] = biological target: T2, CREB-binding protein (Homo sapiens, UniProt Q92793); experiment: Alphascreen assay. Binding to CREBBPA (domain start/stop: R1081-G1197) by alphascreen assay
# [3] = biological target: Bromodomain-containing protein 3 (Homo sapiens) (UniProt Q15059); experiment: Thermal Shift Assay. Domain start/stop: P24-E144; details: Compound concentration 10.0 uM, Protein concentration 2.0 uM
# [4] = biological target: Protein polybromo-1 (Homo sapiens) (UniProt Q86U86); experiment: Thermal Shift Assay. Domain start/stop: H23-D159; details: Compound concentration 10.0 uM, Protein concentration 2.0 uM
# [5] = biological target: Protein polybromo-1 (Homo sapiens) (UniProt Q86U86); experiment: Thermal Shift Assay. Domain start/stop: R487-D598; details: Compound concentration 10.0 uM, Protein concentration 2.0 uM
# [6] = biological target: Tripartite motif-containing protein 66 (Homo sapiens) (UniProt O15016); experiment: Thermal Shift Assay. Domain start/stop: M1091-S1218; details: Compound concentration 10.0 uM, Protein concentration 2.0 uM
# [7] = biological target: PH-interacting protein (Homo sapiens) (UniProt Q8WWQ0); details: Compound concentration 50.0 uM, Protein concentration 0.025 uM
# [8] = biological target: Histone-lysine N-methyltransferase ASH1L (Homo sapiens) (UniProt Q9NR48); details: Compound concentration 10.0 uM, Protein concentration 2.0 uM
# [9] = biological target: ATPase family AAA domain-containing protein 2 (Homo sapiens) (UniProt Q6PL18); details: Compound concentration 10.0 uM, Protein concentration 2.0 uM
# [10] = biological target: ATPase family AAA domain-containing protein 2B (Homo sapiens) (UniProt Q9ULI0); details: Compound concentration 10.0 uM, Protein concentration 2.0 uM
# [11] = biological target: Bromodomain adjacent to zinc finger domain protein 1A (Homo sapiens) (UniProt Q9NRL2); details: Compound concentration 10.0 uM, Protein concentration 2.0 uM
# [12] = biological target: Bromodomain adjacent to zinc finger domain protein 2A (Homo sapiens) (UniProt Q9UIF9); details: Compound concentration 10.0 uM, Protein concentration 2.0 uM
# [13] = biological target: Bromodomain adjacent to zinc finger domain protein 2B (Homo sapiens) (UniProt Q9UIF8); details: Compound concentration 10.0 uM, Protein concentration 2.0 uM
# [14] = biological target: Nucleosome-remodeling factor subunit BPTF (Homo sapiens) (UniProt Q12830); details: Compound concentration 10.0 uM, Protein concentration 2.0 uM
# [15] = biological target: Bromodomain-containing protein 1 (Homo sapiens) (UniProt O95696); details: Compound concentration 10.0 uM, Protein concentration 2.0 uM
# [16] = biological target: Bromodomain-containing protein 2 (Homo sapiens) (UniProt P25440); details: Compound concentration 10.0 uM, Protein concentration 2.0 uM
# [17] = biological target: Bromodomain-containing protein 2 (Homo sapiens) (UniProt P25440); details: Compound concentration 10.0 uM, Protein concentration 2.0 uM; remark: listed apart in the source
# [18] = biological target: Bromodomain-containing protein 3 (Homo sapiens) (UniProt Q15059); details: Compound concentration 10.0 uM, Protein concentration 2.0 uM
# [19] = biological target: T1, Bromodomain-containing protein 4; details: Compound concentration 10.0 uM, Protein concentration 2.0 uM
# [20] = biological target: Bromodomain-containing protein 9 (Homo sapiens) (UniProt Q9H8M2); details: Compound concentration 10.0 uM, Protein concentration 2.0 uM
# [21] = biological target: Bromodomain testis-specific protein (Homo sapiens) (UniProt Q58F21); details: Compound concentration 10.0 uM, Protein concentration 2.0 uM
# [22] = biological target: Bromodomain testis-specific protein (Homo sapiens) (UniProt Q58F21); details: Compound concentration 10.0 uM, Protein concentration 2.0 uM; remark: listed apart in the source
# [23] = biological target: Bromodomain and PHD finger-containing protein 3 (Homo sapiens) (UniProt Q9ULD4); details: Compound concentration 10.0 uM, Protein concentration 2.0 uM
# [24] = biological target: Bromodomain and WD repeat-containing protein 1 (Homo sapiens) (UniProt Q9NSI6); details: Compound concentration 10.0 uM, Protein concentration 2.0 uM
# [25] = biological target: Bromodomain and WD repeat-containing protein 3 (Homo sapiens) (UniProt Q6RI45); details: Compound concentration 10.0 uM, Protein concentration 2.0 uM
# [26] = biological target: Chromatin remodeling regulator CECR2 (Homo sapiens) (UniProt Q9BXF3); details: Compound concentration 10.0 uM, Protein concentration 2.0 uM
# CREB-binding protein [27] = biological target: T2, CREB-binding protein; details: Compound concentration 10.0 uM, Protein concentration 2.0 uM
# Target sequence in this assay (Q92793 2-2442 limits assumed): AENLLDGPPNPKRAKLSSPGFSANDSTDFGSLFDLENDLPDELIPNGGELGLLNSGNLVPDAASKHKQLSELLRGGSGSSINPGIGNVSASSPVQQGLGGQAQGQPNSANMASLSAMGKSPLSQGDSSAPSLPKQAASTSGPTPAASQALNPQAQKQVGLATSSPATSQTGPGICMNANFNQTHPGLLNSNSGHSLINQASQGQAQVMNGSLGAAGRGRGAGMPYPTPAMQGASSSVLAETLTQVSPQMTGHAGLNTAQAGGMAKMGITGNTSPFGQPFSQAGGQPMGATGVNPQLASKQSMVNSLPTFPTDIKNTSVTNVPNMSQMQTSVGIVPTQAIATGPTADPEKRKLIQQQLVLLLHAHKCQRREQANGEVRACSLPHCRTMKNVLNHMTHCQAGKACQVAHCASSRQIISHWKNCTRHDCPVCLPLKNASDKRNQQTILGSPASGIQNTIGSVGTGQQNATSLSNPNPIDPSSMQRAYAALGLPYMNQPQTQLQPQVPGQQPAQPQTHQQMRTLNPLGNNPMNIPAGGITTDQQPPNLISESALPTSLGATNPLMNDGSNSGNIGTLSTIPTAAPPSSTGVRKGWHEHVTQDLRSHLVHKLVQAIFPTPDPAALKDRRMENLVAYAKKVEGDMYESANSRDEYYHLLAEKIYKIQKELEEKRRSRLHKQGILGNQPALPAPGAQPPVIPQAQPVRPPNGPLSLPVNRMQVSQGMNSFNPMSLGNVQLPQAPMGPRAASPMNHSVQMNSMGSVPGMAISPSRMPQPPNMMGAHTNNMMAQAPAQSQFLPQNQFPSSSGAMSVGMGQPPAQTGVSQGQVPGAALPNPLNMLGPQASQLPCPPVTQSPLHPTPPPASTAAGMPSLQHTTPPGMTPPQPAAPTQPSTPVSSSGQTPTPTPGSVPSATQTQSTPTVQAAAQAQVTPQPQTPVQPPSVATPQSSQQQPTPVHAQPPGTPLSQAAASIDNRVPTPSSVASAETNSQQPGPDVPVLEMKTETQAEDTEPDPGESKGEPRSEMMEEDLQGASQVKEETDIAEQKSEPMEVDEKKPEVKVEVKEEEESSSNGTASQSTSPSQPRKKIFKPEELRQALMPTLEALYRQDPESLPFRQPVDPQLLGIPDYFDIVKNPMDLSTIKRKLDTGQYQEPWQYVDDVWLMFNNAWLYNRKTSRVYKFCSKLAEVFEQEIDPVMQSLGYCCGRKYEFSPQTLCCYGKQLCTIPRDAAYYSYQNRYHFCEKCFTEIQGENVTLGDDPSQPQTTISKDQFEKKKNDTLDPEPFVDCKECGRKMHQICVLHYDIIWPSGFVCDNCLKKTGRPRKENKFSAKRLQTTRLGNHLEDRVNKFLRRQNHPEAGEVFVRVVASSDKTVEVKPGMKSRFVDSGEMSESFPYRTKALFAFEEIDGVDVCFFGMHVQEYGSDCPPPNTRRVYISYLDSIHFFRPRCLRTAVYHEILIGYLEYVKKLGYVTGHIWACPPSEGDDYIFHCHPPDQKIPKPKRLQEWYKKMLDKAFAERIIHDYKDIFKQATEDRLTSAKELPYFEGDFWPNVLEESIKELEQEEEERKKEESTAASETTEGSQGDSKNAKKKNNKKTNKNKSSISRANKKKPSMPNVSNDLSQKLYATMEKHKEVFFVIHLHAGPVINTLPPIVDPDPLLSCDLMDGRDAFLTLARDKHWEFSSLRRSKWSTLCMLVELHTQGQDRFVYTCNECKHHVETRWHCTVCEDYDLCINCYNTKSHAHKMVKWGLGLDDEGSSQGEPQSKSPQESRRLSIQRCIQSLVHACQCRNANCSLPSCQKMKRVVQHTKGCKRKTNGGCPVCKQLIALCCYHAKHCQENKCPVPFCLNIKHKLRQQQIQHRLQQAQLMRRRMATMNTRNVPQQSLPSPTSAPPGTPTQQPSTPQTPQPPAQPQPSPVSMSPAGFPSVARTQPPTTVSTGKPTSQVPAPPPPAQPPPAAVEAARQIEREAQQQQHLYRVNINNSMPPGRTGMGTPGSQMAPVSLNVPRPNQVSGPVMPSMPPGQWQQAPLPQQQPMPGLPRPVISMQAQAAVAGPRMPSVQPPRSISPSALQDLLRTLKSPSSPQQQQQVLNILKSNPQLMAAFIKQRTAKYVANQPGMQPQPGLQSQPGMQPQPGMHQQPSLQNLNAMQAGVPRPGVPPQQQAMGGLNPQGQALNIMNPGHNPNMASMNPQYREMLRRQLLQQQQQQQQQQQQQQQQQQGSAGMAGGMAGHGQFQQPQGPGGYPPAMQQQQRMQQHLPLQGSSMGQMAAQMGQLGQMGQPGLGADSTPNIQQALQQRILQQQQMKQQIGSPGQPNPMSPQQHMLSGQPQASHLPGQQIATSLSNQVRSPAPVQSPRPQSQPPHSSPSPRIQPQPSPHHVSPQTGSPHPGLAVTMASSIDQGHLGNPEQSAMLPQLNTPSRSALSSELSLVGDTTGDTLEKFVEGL
# [28] = biological target: Histone acetyltransferase p300 (Homo sapiens) (UniProt Q09472); details: Compound concentration 10.0 uM, Protein concentration 2.0 uM
# [29] = biological target: Histone acetyltransferase KAT2A (Homo sapiens) (UniProt Q92830); details: Compound concentration 10.0 uM, Protein concentration 2.0 uM
# [30] = biological target: Histone acetyltransferase KAT2B (Homo sapiens) (UniProt Q92831); details: Compound concentration 10.0 uM, Protein concentration 2.0 uM
# [31] = biological target: Protein polybromo-1 (Homo sapiens) (UniProt Q86U86); details: Compound concentration 10.0 uM, Protein concentration 2.0 uM
# [32] = biological target: Protein polybromo-1 (Homo sapiens) (UniProt Q86U86); details: Compound concentration 10.0 uM, Protein concentration 2.0 uM; remark: listed apart in the source
# [33] = biological target: Protein polybromo-1 (Homo sapiens) (UniProt Q86U86); details: Compound concentration 10.0 uM, Protein concentration 2.0 uM; remark: listed apart in the source
# [34] = biological target: Protein polybromo-1 (Homo sapiens) (UniProt Q86U86); details: Compound concentration 10.0 uM, Protein concentration 2.0 uM; remark: listed apart in the source
# [35] = biological target: PH-interacting protein (Homo sapiens) (UniProt Q8WWQ0); details: Compound concentration 10.0 uM, Protein concentration 2.0 uM
# [36] = biological target: SWI/SNF-related matrix-associated actin-dependent regulator of chromatin subfamily A member 2 (Homo sapiens) (UniProt P51531); details: Compound concentration 10.0 uM, Protein concentration 2.0 uM
# [37] = biological target: SWI/SNF-related matrix-associated actin-dependent regulator of chromatin subfamily A member 4 (Homo sapiens) (UniProt P51532); details: Compound concentration 10.0 uM, Protein concentration 2.0 uM
# [38] = biological target: Nuclear body protein SP140 (Homo sapiens) (UniProt Q13342); details: Compound concentration 10.0 uM, Protein concentration 2.0 uM
# [39] = biological target: Nuclear body protein SP140-like protein (Homo sapiens) (UniProt Q9H930); details: Compound concentration 10.0 uM, Protein concentration 2.0 uM
# [40] = biological target: Transcription initiation factor TFIID subunit 1 (Homo sapiens) (UniProt P21675); details: Compound concentration 10.0 uM, Protein concentration 2.0 uM
# [41] = biological target: Transcription initiation factor TFIID subunit 1 (Homo sapiens) (UniProt P21675); details: Compound concentration 10.0 uM, Protein concentration 2.0 uM; remark: listed apart in the source
# [42] = biological target: Transcription initiation factor TFIID subunit 1-like (Homo sapiens) (UniProt Q8IZX4); details: Compound concentration 10.0 uM, Protein concentration 2.0 uM
# [43] = biological target: Transcription initiation factor TFIID subunit 1-like (Homo sapiens) (UniProt Q8IZX4); details: Compound concentration 10.0 uM, Protein concentration 2.0 uM; remark: listed apart in the source
# [44] = biological target: Transcription intermediary factor 1-alpha (Homo sapiens) (UniProt O15164); details: Compound concentration 10.0 uM, Protein concentration 2.0 uM
# [45] = biological target: Transcription intermediary factor 1-beta (Homo sapiens) (UniProt Q13263); details: Compound concentration 10.0 uM, Protein concentration 2.0 uM
# Peregrin (Homo sapiens) = Peregrin (Homo sapiens) (UniProt P55201); details: Compound concentration 10.0 uM, Protein concentration 2.0 uM
# Sequence of Bromodomain-containing protein 2 (Homo sapiens) (P25440 whole entry, looked up): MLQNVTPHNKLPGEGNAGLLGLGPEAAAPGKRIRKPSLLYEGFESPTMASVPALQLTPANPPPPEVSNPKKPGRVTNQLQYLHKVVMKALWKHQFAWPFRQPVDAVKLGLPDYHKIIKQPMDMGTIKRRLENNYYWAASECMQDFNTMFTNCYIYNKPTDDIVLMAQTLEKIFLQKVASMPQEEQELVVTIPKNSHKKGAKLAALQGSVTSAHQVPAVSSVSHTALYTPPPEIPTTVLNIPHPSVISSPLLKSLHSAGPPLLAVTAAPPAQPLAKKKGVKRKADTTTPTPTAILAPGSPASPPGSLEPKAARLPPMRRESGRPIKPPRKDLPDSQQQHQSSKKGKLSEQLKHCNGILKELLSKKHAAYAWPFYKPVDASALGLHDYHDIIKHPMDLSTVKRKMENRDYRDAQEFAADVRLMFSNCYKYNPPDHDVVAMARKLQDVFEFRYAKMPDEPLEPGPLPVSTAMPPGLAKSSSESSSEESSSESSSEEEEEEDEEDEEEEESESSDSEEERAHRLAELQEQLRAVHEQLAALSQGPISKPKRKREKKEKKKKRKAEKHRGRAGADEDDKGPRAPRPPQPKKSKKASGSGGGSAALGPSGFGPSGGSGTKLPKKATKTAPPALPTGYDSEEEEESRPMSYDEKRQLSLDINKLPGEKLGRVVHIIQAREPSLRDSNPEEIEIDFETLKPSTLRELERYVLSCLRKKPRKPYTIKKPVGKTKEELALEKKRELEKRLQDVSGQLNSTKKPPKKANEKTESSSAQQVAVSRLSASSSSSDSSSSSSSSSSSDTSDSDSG
# Sequence of Bromodomain-containing protein 3 (Homo sapiens) (Q15059 2-726 limits assumed): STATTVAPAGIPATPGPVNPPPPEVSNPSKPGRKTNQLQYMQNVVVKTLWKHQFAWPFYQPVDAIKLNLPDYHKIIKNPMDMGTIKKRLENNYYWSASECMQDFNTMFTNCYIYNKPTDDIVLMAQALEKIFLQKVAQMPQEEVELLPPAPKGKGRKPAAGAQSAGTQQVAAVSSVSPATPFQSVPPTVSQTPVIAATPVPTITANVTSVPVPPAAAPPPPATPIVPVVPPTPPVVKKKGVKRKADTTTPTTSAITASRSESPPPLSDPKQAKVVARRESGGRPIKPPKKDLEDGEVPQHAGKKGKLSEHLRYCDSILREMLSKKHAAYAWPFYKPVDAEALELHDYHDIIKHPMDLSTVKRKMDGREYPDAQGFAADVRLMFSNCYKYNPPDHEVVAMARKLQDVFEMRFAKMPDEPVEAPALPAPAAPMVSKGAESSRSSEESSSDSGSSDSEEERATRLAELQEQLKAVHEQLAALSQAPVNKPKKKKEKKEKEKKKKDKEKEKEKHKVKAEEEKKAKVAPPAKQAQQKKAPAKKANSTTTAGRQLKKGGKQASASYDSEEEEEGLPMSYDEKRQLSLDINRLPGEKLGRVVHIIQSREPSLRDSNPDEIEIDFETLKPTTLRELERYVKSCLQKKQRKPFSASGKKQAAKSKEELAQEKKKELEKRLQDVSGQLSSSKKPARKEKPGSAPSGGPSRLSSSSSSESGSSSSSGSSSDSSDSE
# Sequence of Histone acetyltransferase KAT2B (Homo sapiens) (Q92831 whole entry, looked up): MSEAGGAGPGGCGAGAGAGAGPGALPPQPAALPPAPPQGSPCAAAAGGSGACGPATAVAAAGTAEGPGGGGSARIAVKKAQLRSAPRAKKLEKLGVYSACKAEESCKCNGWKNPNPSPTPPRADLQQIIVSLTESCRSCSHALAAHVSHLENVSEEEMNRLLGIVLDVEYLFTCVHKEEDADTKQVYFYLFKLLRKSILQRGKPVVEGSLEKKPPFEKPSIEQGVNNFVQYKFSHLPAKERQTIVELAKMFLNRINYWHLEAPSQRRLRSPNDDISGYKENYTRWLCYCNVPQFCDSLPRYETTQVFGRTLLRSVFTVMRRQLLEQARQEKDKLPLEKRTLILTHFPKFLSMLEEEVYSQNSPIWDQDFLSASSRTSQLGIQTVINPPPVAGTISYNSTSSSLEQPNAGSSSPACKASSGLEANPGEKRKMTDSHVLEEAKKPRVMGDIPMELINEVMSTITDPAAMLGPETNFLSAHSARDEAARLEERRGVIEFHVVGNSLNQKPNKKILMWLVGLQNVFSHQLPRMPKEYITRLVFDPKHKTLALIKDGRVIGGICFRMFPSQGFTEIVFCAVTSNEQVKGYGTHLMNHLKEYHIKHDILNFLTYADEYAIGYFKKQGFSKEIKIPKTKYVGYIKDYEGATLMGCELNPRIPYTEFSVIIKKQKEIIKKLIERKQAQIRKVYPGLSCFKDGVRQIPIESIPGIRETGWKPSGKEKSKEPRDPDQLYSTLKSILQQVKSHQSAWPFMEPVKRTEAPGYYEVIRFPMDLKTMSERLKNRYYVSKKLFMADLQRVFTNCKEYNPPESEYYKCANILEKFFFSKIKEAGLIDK
compound,measurement,setting,value
CCC(=O)N1CCOc2c(cc(-c3ccc(OC)c(OC)c3)cc2OC[C@H]2CCCN(C)C2)C1,IC50,[1],2460 nM
same,IC50,CREB-binding protein [2],324 nM
same,ΔTm,[3],1.35 °C and 2.27 °C
same,ΔTm,[4],1.87 °C
same,ΔTm,[5],1.11 °C
same,ΔTm,[6],0.65 °C
same,inhibition,[7],11.6% and 13.1%
same,ΔTm,[8],0.59 °C
same,ΔTm,[9],0.94 °C
same,ΔTm,[10],0.16 °C
same,ΔTm,[11],1.83 °C
same,ΔTm,[12],0.84 °C
same,ΔTm,[13],0.11 °C and 0.34 °C
same,ΔTm,[14],0.75 °C
same,ΔTm,[15],0.86 °C
same,ΔTm,[16],2.1 °C and 1.08 °C
same,ΔTm,[17],1.23 °C
same,ΔTm,[18],1.01 °C and 1.27 °C
same,ΔTm,[19],0.77 °C and 0.68 °C
same,ΔTm,[20],0.93 °C
same,ΔTm,[21],0.73 °C
same,ΔTm,[22],0.3 °C
same,ΔTm,[23],0.92 °C
same,ΔTm,[24],0.28 °C
same,ΔTm,[25],1.86 °C
same,ΔTm,[26],0.59 °C
same,ΔTm,CREB-binding protein [27],6.8 °C and 8.01 °C and 8.5 °C
same,ΔTm,[28],8.99 °C
same,ΔTm,[29],0.84 °C
same,ΔTm,[30],-0.01 °C and 0.36 °C
same,ΔTm,[31],0.4 °C and 0.01 °C
same,ΔTm,[32],-0.05 °C
same,ΔTm,[33],0.34 °C
same,ΔTm,[34],0.53 °C
same,ΔTm,[35],1.07 °C
same,ΔTm,[36],0.19 °C
same,ΔTm,[37],0.56 °C
same,ΔTm,[38],0.16 °C
same,ΔTm,[39],1.3 °C
same,ΔTm,[40],0.18 °C
same,ΔTm,[41],0.37 °C
same,ΔTm,[42],0.65 °C
same,ΔTm,[43],0.3 °C
same,ΔTm,[44],0.77 °C
same,ΔTm,[45],0.1 °C
same,ΔTm,Peregrin (Homo sapiens),0.86 °C
